Values quoted from earlier work, collected in US12454539B2, “Controlled-delivery cromakalim prodrugs” (Qlaris Bio, Inc., priority 2019, dated 2025).

Key:
normotensive mouse model = conditions: once daily dosing
KATP channels = conditions: membrane patches from rabbit mesenteric arterial smooth muscle cells, in the presence of ATP
[1] = tested on: isolated rat mesenteric lymph vessels; conditions: increasing concentrations

Structure (SMILES)	intraocular pressure (IOP) (normotensive mouse model)	solubility in water	increase of open-state probability (Popen) of single KATP channels (KATP channels)	contractions of lymph vessels [1]
CC1(C)Oc2ccc(C#N)cc2[C@@H](N2CCCC2=O)[C@@H]1OP(=O)(O)O [CKLP1]	lower intraocular pressure	more water soluble than levcromakalim	–	–
CC1(C)Oc2ccc(C#N)cc2C(N2CCCC2=O)C1O (stereo not shown) [Cromakalim, cromakalim]	–	–	more than 9 fold	abolished the contractions of the vessels
